Patent US4889861A, “Substituted imidazo[1,5-a]pyridine derivatives and other substituted bicyclic derivatives and their use as aromatase inhibitors” (Ciba-Geigy Corp., priority 1987, dated 1989)

How the values were obtained:
aromatase = assay: in vivo inhibition of aromatase activity: suppression of ovarian estrogen content of PMS-hCG primed female rats; details: Rattus norvegicus, po
Protocol: Twenty-one-day-old female rats are injected subcutaneously with 10 IU pregnant mare serum gonadotropin (PMS). Two days later the same rats are injected subcutaneously with 30 IU human chorionic gonadrotropin (hCG). On the day following the hCG treatment the rats are injected subcutaneously with either propylene glycol (0.2 ml:p.o.) or with various doses of the test compound. […] Four hours after the injection of androstenedione the rats are killed and their ovaries removed and trimmed free of adhering tissue and stored in pairs at -40° C. To determine the total estrogen content of the ovaries, 1.5 ml of 0.05M aqueous potassium phosphate buffer, pH 7.4, and 0.2 ml of 0.1N aqueous sodium hydroxide are added to the tissues which are then homogenized. The homogenate is extracted with 15 ml of diethyl ether, 5 ml aliquots are radioimmunoassayed with antiserum having 100% cross reactivity with estrone, estradiol and estriol. The results are expressed as ng estrogen/pair of ovaries.

thromboxane synthetase = molecular target: T1, thromboxane synthetase (Homo sapiens, UniProt P24557); assay: in vitro inhibition of the thromboxane synthetase enzyme (TxB2/PGF2 ratio); format: biochemical; details: 30 min incubation
T1 construct: crude microsomal preparation of thromboxane synthetase from lysed hyman platelets; from tissue; host or cells: lysed human (printed 'hyman') platelets, crude microsomes
T1 sequence (P24557 1-533): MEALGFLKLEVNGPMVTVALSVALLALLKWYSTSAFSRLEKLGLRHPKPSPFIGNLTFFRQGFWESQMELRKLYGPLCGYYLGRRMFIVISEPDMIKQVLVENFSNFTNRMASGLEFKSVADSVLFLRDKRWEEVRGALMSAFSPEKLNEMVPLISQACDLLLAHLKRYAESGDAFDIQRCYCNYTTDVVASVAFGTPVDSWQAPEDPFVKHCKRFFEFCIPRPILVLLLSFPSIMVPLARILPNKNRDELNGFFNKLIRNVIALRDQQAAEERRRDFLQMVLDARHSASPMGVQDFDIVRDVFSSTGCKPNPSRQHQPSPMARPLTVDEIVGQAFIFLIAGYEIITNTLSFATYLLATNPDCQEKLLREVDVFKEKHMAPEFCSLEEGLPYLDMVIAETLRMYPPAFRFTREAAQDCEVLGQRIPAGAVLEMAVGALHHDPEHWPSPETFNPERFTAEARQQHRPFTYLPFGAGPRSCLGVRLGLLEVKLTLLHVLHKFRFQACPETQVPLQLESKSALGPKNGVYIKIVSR
Protocol: Res. Comm. 74, 1432 (1977); the testing procedure is as follows:
^14 C-arachidonic acid is incubated with an enzyme preparation consisting of solubilized and partially purified prostaglandin cyclo-oxygenase from sheep seminal vesicles and a crude microsomal preparation of thromboxane synthetase from lysed hyman platelets. The test compound (dissolved in buffer, or if necessary, in a small amount of ethanol) is added to the incubation medium. At the end of the incubation period (30 minutes), Prostaglandin E2 (PGE2) is reduced to a mixture of Prostaglandin F2 α and F2 β (PGF2 α+β) by addition of sodium borohydride. The radioactive products and excess substrate are extracted into ethyl acetate; the extract is evaporated to dryness; the residue is dissolved in acetone, spotted on thin-layer plates and chromatographed in the solvent system toluene: acetone: glacial acetic acid (100 volumes: 100 volumes: 3 volumes). The radioactive zones are located; those corresponding to Thromboxane B2 (T×B2) and PGF2 α+β are transferred to liquid scintillation vials and counted. The ratio of counts for T×B2 /PGF2 α+β is calculated for each concentration of test compound and IC50 values are determined graphically as the concentration of test compound at which the ratio of T×B2 /PGF2 α+β is reduced to 50% of the control value.

Structure (SMILES) | minimal effective dose (aromatase) | IC50 (thromboxane synthetase)
N#Cc1ccc(-c2cccc3cncn23)cc1 [Example 3, 5-(p-Cyanophenyl)imidazo[1,5-a]pyridine] | 0.013 mg/kg | 
CCOC(=O)CC1CCc2cncn2C1c1ccc(C#N)cc1 (stereo not drawn) [Example 33, 5-(4-cyanophenyl)-6-ethoxycarbonylmethyl-5,6,7,8-tetrahydroimidazo[1,5-a]pyridine] | 0.346 mg/kg | 
O=C(O)c1ccc(C2CCCc3cncn32)cc1 (stereo not drawn) [Example 9, 5-(p-Carboxyphenyl)-5,6,7,8-tetrahydroimidazo[1,5-a]-pyridine] |  | ~900 nM
